This note sets out measurements from article PMC3673472, “Structural and functional insight into the universal stress protein family” (Evolutionary Applications, 2013).

One assay concerns the target T1, NE1028 (Nitrosomonas europaea, UniProt Q82VN8).
T1 construct: full-length, N-terminal His6-TEV tag cleaved; wild type (not SeMet) in the AMP complex; homodimer
Nature of the assay: X-ray crystal structure of the complex ([…] Å). The settings on record: cocrystallised with 10 mM AMP, pH 7.0, then soaked with 10 mM AMP for 24 h; ATP-binding site.

For a further assay, the target named is T2, AF0826 (Archaeoglobus fulgidus, UniProt O29432).
T2 construct: gene AF_0826; N-terminal His6-TEV tag kept; selenomethionine-substituted; homodimer; strain printed only for AF1760 of the same species
T2 sequence (O29432 entry or part of it): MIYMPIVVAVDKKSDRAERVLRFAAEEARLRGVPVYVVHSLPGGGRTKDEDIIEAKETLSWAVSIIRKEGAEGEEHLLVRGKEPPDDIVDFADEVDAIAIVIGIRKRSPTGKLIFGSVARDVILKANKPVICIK
Put plainly: X-ray crystal structure of the complex ([…] Å). The settings on record: SeMet crystals (pH 5.5) soaked with a cocktail of adenine, adenosine, AMP, ADP, ATP, dAMP, cAMP, ADP-ribose; ligand identified from structure; ATP-binding site.

SMILES strings stand for the structures.

T1 sequence (Q82VN8 entry or part of it): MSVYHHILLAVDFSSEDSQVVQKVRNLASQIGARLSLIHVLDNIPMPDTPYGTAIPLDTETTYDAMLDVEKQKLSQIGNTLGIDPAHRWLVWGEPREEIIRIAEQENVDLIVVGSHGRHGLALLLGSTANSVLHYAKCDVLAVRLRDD

For `Nc1ncnc2c1ncn2[C@@H]1O[C@H](COP(=O)(O)O)[C@@H](O)[C@H]1O` [AMP], the “X-ray crystal structure of the complex (2.00 Å)” value at NE1028 is listed as “Our structure of NE1028–AMP confirms that the protein can bind at least one molecule”.

Take `Nc1ncnc2c1ncn2[C@H]1C[C@H](O)[C@@H](COP(=O)(O)O)O1` [dAMP]: at AF0826, the “X-ray crystal structure of the complex (2.10 Å)” value is “we obtained the structure of AF0826 with dAMP bound in the vicinity”.
